Converted amounts (≈) assume the structure as drawn. One block for each molecule: values may come before it.
Key:
[1] = target: Transient receptor potential cation channel subfamily V member 4 (Homo sapiens, UniProt Q9HBA0); test: Antagonist activity at human TRPV4 expressed in BHK or HEK MSR2 cells assessed as inhibition of TRPV4 agonist GSK634775 (EC80)-induced response incubated for 10 mins; assay type: cell-based
[2] = Solubility of the compound by CLND assay; assay type: physicochemical
[3] = Distribution coefficient, log D of the compound by chromatographic method; assay type: physicochemical; settings: octanol/water
[4] = Fraction unbound in rat plasma; assay type: ADME, cell-free
[5] = Dose normalized AUC in orally dosed rat; assay type: ADME, organism-based; settings: in vivo, po
[6] = Unbound clearance in iv dosed rat; assay type: ADME, organism-based; settings: in vivo
[7] = Clearance in iv dosed rat; assay type: ADME, organism-based; settings: in vivo
[8] = Oral bioavailability in rat; assay type: ADME, organism-based; settings: in vivo
Cytochrome P450 3A4 = Cytochrome P450 3A4 (Homo sapiens, UniProt P08684); test: Time dependent inhibition of recombinant human CYP3A4 expressed in bactosomes at 100 to 300 uM using 7-benzyloxy-4-(trifluoromethyl)-coumarin substrate in presence of NADPH-generating system incubated up to 15 mins by fluorescence based assay; assay type: ADME; settings: recombinant enzyme, 0.25 h, dose 100-300 µM
[9] = Volume of distribution at steady state in iv dosed rat; assay type: ADME, organism-based; settings: in vivo, read-out: Vdss
[10] = Cmax in rat; assay type: ADME; settings: in vivo
[11] = MRT in iv dosed rat; assay type: ADME, organism-based; settings: in vivo

Transient receptor potential cation channel subfamily V member 4, sequence (Q9HBA0 whole entry): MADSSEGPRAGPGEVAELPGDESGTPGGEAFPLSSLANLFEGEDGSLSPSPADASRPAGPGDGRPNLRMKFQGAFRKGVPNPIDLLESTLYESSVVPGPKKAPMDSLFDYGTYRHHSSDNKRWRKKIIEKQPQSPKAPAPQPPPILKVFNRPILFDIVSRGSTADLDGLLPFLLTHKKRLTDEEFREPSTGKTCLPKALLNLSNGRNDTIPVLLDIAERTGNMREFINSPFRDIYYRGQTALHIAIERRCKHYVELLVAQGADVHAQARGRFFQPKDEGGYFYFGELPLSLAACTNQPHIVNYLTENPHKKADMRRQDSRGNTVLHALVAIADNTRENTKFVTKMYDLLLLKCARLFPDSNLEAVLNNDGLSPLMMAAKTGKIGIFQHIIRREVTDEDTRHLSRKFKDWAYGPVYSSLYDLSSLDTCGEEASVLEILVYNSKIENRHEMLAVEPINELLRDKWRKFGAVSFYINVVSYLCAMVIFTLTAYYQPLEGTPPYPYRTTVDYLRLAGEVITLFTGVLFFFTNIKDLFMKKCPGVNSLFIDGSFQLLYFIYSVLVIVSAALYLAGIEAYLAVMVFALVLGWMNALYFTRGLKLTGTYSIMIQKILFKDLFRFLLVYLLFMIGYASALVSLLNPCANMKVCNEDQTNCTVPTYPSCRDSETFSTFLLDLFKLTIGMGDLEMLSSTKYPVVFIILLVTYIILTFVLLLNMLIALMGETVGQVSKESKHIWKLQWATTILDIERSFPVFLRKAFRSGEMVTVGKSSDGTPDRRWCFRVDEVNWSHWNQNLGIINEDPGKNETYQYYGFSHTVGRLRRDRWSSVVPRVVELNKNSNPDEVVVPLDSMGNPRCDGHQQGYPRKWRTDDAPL
Cytochrome P450 3A4, sequence (P08684 whole entry): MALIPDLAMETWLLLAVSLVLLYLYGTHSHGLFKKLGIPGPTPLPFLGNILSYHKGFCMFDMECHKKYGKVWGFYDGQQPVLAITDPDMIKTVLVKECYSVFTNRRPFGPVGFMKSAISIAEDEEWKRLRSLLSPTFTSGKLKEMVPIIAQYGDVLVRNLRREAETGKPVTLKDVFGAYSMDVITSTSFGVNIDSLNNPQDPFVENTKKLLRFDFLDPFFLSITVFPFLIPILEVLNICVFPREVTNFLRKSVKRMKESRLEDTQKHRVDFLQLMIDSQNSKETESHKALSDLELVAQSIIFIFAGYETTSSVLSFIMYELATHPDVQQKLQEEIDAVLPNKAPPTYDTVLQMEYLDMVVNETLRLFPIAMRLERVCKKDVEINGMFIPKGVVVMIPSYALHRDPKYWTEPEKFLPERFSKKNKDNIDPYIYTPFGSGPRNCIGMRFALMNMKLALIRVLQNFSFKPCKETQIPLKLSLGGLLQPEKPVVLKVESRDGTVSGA

- IC50 [1]: 0.1 µM
- solubility kinetic [2]: 7.5 µM (≈ 3.44 µg/mL)
SMILES: N#Cc1ccc(OCC2(O)CCN(S(=O)(=O)c3ccc(Cl)cc3Cl)CC2)cc1F

- chromatographic logD [3]: 4.6
- solubility kinetic [2]: ≥ 390 µM
SMILES: N#Cc1ccc(OCC(N)CCNS(=O)(=O)c2ccc(Cl)cc2Cl)cc1F (racemic)

- IC50 [1]: > 25.1 µM
SMILES: Cc1cccc(OCC(N)CCNS(=O)(=O)c2ccc(Cl)cc2Cl)c1 (centres undefined)

- IC50 [1]: 10 µM
SMILES: CN(CCC(O)COc1ccc(C#N)c(F)c1)S(=O)(=O)c1ccc(Cl)cc1Cl (racemic)

- IC50 [1]: 20 µM
SMILES: N#Cc1ccc(OCC(N)CCNS(=O)(=O)c2ccccc2)cc1F (racemic)

- IC50 [1]: 12.6 µM
SMILES: NC(CCNS(=O)(=O)c1ccc(Cl)cc1Cl)COc1cccc(Cl)c1 (centres undefined)

- IC50 [1]: 0.631 µM
SMILES: N#Cc1ccc(OC[C@@H](N)CCNS(=O)(=O)c2ccc(C(F)(F)F)cc2)cc1F

- IC50 [1]: 7.94 µM
SMILES: COc1ccccc1S(=O)(=O)NCC[C@H](N)COc1ccc(C#N)c(F)c1

- IC50 [1]: 0.0398 µM
SMILES: N#Cc1ccc(OC[C@@H](N)CCNS(=O)(=O)c2ccccc2C(F)(F)F)cc1F

- IC50 [1]: 0.631 µM
SMILES: N#Cc1ccc(OC[C@@H](N)CCNS(=O)(=O)c2ccccc2OC(F)(F)F)cc1F

- IC50 [1]: 12.6 µM
SMILES: N#Cc1ccc(OCC(N)CCNS(=O)(=O)c2cccc(Cl)c2)cc1F (racemic)

- chromatographic logD [3]: 4.5
- fraction unbound [4]: 0.0084
- AUC/dose [5]: 4.7 µg·h/mL
- CL free [6]: 512 mL/min/kg
- clearance [7]: 4.3 mL/min/kg
- bioavailability [8]: 85%
- inhibition (INH) (Cytochrome P450 3A4): Active
- Vd [9]: 1.8 L/kg
- Cmax [10]: 930 ng/mL
- solubility kinetic [2]: 381 µM (≈ 165 µg/mL)
- MRT [11]: 7.5 h
SMILES: N#Cc1ccc(OC[C@@H](N)CCNS(=O)(=O)c2ccc(Cl)cc2Cl)cc1F

- chromatographic logD [3]: 5.2
- solubility kinetic [2]: 113 µM (≈ 49 µg/mL)
SMILES: N#Cc1ccc(OCC(O)CCNS(=O)(=O)c2ccc(Cl)cc2Cl)cc1F (centres undefined)

- fraction unbound [4]: 0.064
- AUC/dose [5]: 0.6 µg·h/mL
- clearance [7]: 37 mL/min/kg
- bioavailability [8]: 100%
- inhibition (INH) (Cytochrome P450 3A4): Not Active
- MRT [11]: 7 h
SMILES: C[C@](N)(CCNS(=O)(=O)c1ccc(C#N)cc1C(F)(F)F)COc1ccc(C#N)c(F)c1

- fraction unbound [4]: 0.029
- AUC/dose [5]: 0.1 µg·h/mL
- clearance [7]: 38 mL/min/kg
- bioavailability [8]: 22%
- inhibition (INH) (Cytochrome P450 3A4): Active
- MRT [11]: 2.3 h
SMILES: N#Cc1ccc(N)c(OC[C@@H](N)CCNS(=O)(=O)c2ccc(Cl)cc2Cl)c1

- fraction unbound [4]: 0.015
- AUC/dose [5]: 3.7 µg·h/mL
- clearance [7]: 4.7 mL/min/kg
- bioavailability [8]: 100%
- inhibition (INH) (Cytochrome P450 3A4): Active
- MRT [11]: 6.9 h
SMILES: N#Cc1ccc(S(=O)(=O)NCC[C@H](N)COc2ccc(C#N)c(F)c2)c(C(F)(F)F)c1

Source: ChEMBL document CHEMBL4699649, “Design and Optimization of an Acyclic Amine Series of TRPV4 Antagonists by Electronic Modulation of Hydrogen Bond Interactions” (J Med Chem, 2020)
